Where two headings read alike, the source gives them in different places.
Legend:
[1] = for conversion to 001 in vivo: 2 mg/kg iv in mice; for plasma levels of 001: mouse, iv, 2 mg/kg
Procedure: General Procedure for intravenous pharmacokinetic study in mice: Male C57/BL6 mice were used to evaluate each compound, with n=3 mice/time point. Animals were administered through intravenous route with solution formulation at 2 mg/kg dose. […] Following blood collection, immediately, animals were sacrificed, and vena-cava was cut open and blood was drained. […] Brain samples were collected from set of three mice at each time point. […] Brain samples were homogenized using 2 volumes of ice-cold PBS (pH-7.4) of brain weight. […] Concentrations of compound (or compound and metabolite) in mouse plasma and brain samples were determined by fit for purpose LC-MS/MS method.

[2] = 5 µM
[3] = 5 µM; remark: listed apart in the source
[4] = Pharmacokinetics of 043 and 001 in mice after oral 043 (75 mg/kg); format: in vivo, male C57BL/6 mice
Procedure: Total twelve male mice were used in this study. […] The formulation vehicle used was normal saline.
The plasma and brain concentration-time data of 043 and 001 was used for the pharmacokinetic analysis.
The extraction procedure for plasma/brain samples and the spiked plasma/brain calibration standards were identical:
A 25 μL of study sample plasma/brain (dilution applied to some samples) or spiked plasma calibration standard was added to individual pre-labeled micro-centrifuge tubes followed by 100 μL of internal standard prepared in acetonitrile (Glipizide-500 ng/mL) was added except for blank, where 100 μL of acetonitrile was added. Samples were vortexed for 5 minutes. Samples were centrifuged for 10 minutes at a speed of 4000 rpm at 4° C. Following centrifugation, 100 μL of clear supernatant was transferred in 96 well plates and analyzed using LC-MS/MS.

[5] = format: physicochemical
Procedure: The hydrolysis kinetics was under a certain temperature and measured by LCMS at a certain time interval. The corresponding LCMS chromatograms were recorded and the conversions were calculated. The hydrolysis conditions and the data were summarized in below table. LCMS spectra were obtained using Agilent 1200G1956A or SHIMADZU LCMS-2020. Standard LCMS conditions were as follows (running time 1.55 minutes):
Acidic condition: Mobile Phase A: 0.0375% TFA in water (v/v). Mobile Phase B: 0.01875% TFA in acetonitrile (v/v); Column: Kinetex EVO C18 30*2.1 mm, 5 μm.
Basic condition: Mobile Phase A: 0.025% NH3—H2O in water (v/v). Mobile Phase B: Acetonitrile; Column: Kinetex EVO C18 2.1×30 mm, 5 μm.
Conversion (%)=peak area 1/(peak area 1+peak area 2)*100%, peak area 1 is the integration of hydrolyzed product, peak area 2 is the integration of starting material.

[6] = format: physicochemical; settings: DI water, 25° C., 0.5 mM
[7] = Hydrolysis Assay of Example A2, Condition 1 (SGF with pepsin, pH 1.5, 37° C.); format: physicochemical; settings: SGF with pepsin pH 1.5, 37° C., 0.5 mM
[8] = Plasma Stability Assay of Example A3, human plasma; settings: % of prodrug compound remaining, 37° C., 0.0 min
[9] = Plasma Stability Assay of Example A3, mouse plasma; settings: % of prodrug compound remaining, 37° C.
[10] = analyte as labelled, single oral administration of 043, 75 mg/kg
[11] = brain, analyte as labelled, single oral administration of 043, 75 mg/kg
[12] = plasma, analyte as labelled, single oral administration of 043, 75 mg/kg

CCC(=O)OC1=C[C@@H]2N(C)CC[C@]2(c2ccc(OC)c(OC)c2)CC1 [Compound 317, [(3aS,7aS)-3a-(3,4-dimethoxyphenyl)-1-methyl-3,4,5,7a-tetrahydro-2H-indol-6-yl] propanoate]
conversion to 001 in vivo [1]: converts to 001 in vivo
001 quantifiable in plasma up to ([1]; male, C57BL/6, mouse, in vivo): 60 min
plasma levels of 001 ([1]; in vivo): not detectable

COc1ccc([C@@]23CCC(OC(=O)CC(C)C)=C[C@@H]2N(C)CC3)cc1OC [Compound 334, [(3aS,7aS)-3a-(3,4-dimethoxyphenyl)-1-methyl-3,4,5,7a-tetrahydro-2H-indol-6-yl] 3-methylbutanoate]
conversion to 001 in vivo [1]: converts to 001 in vivo
001 quantifiable in brain up to ([1]; male, C57BL/6, mouse, in vivo): 2 h
001 quantifiable in plasma up to ([1]; male, C57BL/6, mouse, in vivo): 60 min
plasma levels of 001 ([1]; in vivo): not detectable

COc1ccc([C@@]23CCC(=NNC(=O)Nc4ccc(C(=O)O)cc4)C[C@@H]2N(C)CC3)cc1OC (racemic) [Compound 259, 4-[[[(3aS,7aS)-3a-(3,4-dimethoxyphenyl)-1-methyl-2,3,4,5,7,7a-hexahydroindol-6-ylidene]amino]carbamoylamino]benzoic acid]
Human Plasma Prodrug (%) ([2]; 0 min): 100%
Human Plasma Prodrug (%) ([2]; 15 min): >99%
Human Plasma Prodrug (%) ([2]; 30 min): 96.6%
Human Plasma Prodrug (%) ([2]; 60 min): 85.7%
Human Plasma Prodrug (%) ([2]; 120 min): 70.0%
Human Plasma Prodrug (%) ([2]; 240 min): 54.3%
Mouse Plasma Prodrug (%) ([3]; 0 min): 100%
Mouse Plasma Prodrug (%) ([3]; 15 min): 86.2%
Mouse Plasma Prodrug (%) ([3]; 30 min): 81.0%
Mouse Plasma Prodrug (%) ([3]; 60 min): 67.6%
Mouse Plasma Prodrug (%) ([3]; 120 min): 38.7%
Mouse Plasma Prodrug (%) ([3]; 240 min): 19.8%

COc1ccc([C@]23CCN(C)[C@H]2CC2(CC3)OCCO2)cc1OC [Compound 043]
conversion to 001 in vivo ([4]; 75 mg/kg po in mice): efficiently converts to 001 in vivo
brain concentrations quantifiable up to [4, 10]: 4 h
brain exposure-Kp [4, 10]: < 1
AUClast [4, 11]: 1787.23 ng·h/mL
Cmax [4, 11]: 2684.81 ng/mL
Tmax [4, 11]: 30 min
AUClast [4, 12]: 2555.07 ng·h/mL
Cmax [4, 12]: 3392.53 ng/mL
Tmax [4, 12]: 30 min

COc1ccc([C@]23CCN(C)[C@H]2CC2(CC3)SCCS2)cc1OC (racemic) [Compound 014, (7′aS)-3′a-(3,4-dimethoxyphenyl)-1′-methyl-spiro[1,3-dithiolane-2,6′-2,3,4,5,7,7a-hexahydroindole]]
Notes (stability in words) ([5]; pH = 2.0, 25° C., 0.5 mM, 0.01M HCl, 0-24 h): Stable

COc1ccc([C@]23CCN(C)[C@H]2CC2(CC3)Oc3ccccc3O2)cc1OC [Compound 300, (3′aS,7′aS)-3′a-(3,4-dimethoxyphenyl)-1′-methyl-spiro[1,3-benzodioxole-2,6′-2,3,4,5,7,7a-hexahydroindole]]
Condition 2 Conversion (%) ([6]; time 1 min): 0%
Condition 2 Conversion (%) ([6]; time 5 min): 0%
Condition 2 Conversion (%) ([6]; time 30 min): 0%
Condition 2 Conversion (%) ([6]; time 1 h): 0%
Condition 2 Conversion (%) ([6]; time 4 h): 0%
Condition 2 Conversion (%) ([6]; time 24 h): 0%
Condition 1 Conversion (%) ([7]; time 1 min): 0%
Condition 1 Conversion (%) ([7]; time 5 min): 0%
Condition 1 Conversion (%) ([7]; time 30 min): 0%
Condition 1 Conversion (%) ([7]; time 1 h): 0%
Condition 1 Conversion (%) ([7]; time 4 h): 0%
Condition 1 Conversion (%) ([7]; time 24 h): 0%

COc1ccc([C@]23CCN(C)[C@H]2CC2(CC3)OCCO2)cc1OC (racemic) [Compound 013, 3′a-(3,4-dimethoxyphenyl)-1′-methyl-spiro[1,3-dioxolane-2,6′-2,3,4,5,7,7a-hexahydroindole]]
Notes (stability in words) [5]: Stable
conversion to mesembrine ([5]; acidic pH 2.0, 5° C.): not at 5 °C
conversion to mesembrine ([5]; acidic pH 2.0, 37 and 50° C.): converted to mesembrine

COc1ccc([C@@]23CCC(OC(=O)c4ccc(C(F)(F)F)cc4)=C[C@@H]2N(C)CC3)cc1OC [Compound 310]
Condition 2 Conversion (%) ([6]; time 1 min): 0%
Condition 2 Conversion (%) ([6]; time 5 min): 0%
Condition 2 Conversion (%) ([6]; time 30 min): 0%
Condition 2 Conversion (%) ([6]; time 1 h): 0%
Condition 2 Conversion (%) ([6]; time 4 h): 0%
Condition 2 Conversion (%) ([6]; time 24 h): 0%
Human Plasma Prodrug (%) [8]: 100.0%
Mouse Plasma Prodrug (%) ([9]; 0.0 min): 100.0%
Mouse Plasma Prodrug (%) ([9]; 15 min): 0.4%
Mouse Plasma Prodrug (%) ([9]; 30 min): 0.1%
Mouse Plasma Prodrug (%) ([9]; 60 min): 0.1%
Mouse Plasma Prodrug (%) ([9]; 120 min): 0.1%
Mouse Plasma Prodrug (%) ([9]; 240 min): 0.1%
Condition 1 Conversion (%) ([7]; time 1 min): 0%
Condition 1 Conversion (%) ([7]; time 5 min): 0%
Condition 1 Conversion (%) ([7]; time 30 min): 0%
Condition 1 Conversion (%) ([7]; time 1 h): 0%
Condition 1 Conversion (%) ([7]; time 4 h): 0%
Condition 1 Conversion (%) ([7]; time 24 h): 0%

COc1ccc([C@]23CCN(C)[C@H]2CC2(CC3)OCC(C34CC5CC(CC(C5)C3)C4)O2)cc1OC (stereo partly drawn) [Compound 281, (3′aS,7′aS)-4-(1-adamantyl)-3′a-(3,4-dimethoxyphenyl)-1′-methyl-spiro[1,3-dioxolane-2,6′-2,3,4,5,7,7a-hexahydroindole]]
Condition 2 Conversion (%) ([6]; time 1 min): 0%
Condition 2 Conversion (%) ([6]; time 5 min): 0%
Condition 2 Conversion (%) ([6]; time 30 min): 0%
Condition 2 Conversion (%) ([6]; time 1 h): 0%
Condition 2 Conversion (%) ([6]; time 4 h): 0%
Condition 2 Conversion (%) ([6]; time 24 h): 0%
Condition 1 Conversion (%) ([7]; time 1 min): 0%
Condition 1 Conversion (%) ([7]; time 5 min): 0%
Condition 1 Conversion (%) ([7]; time 30 min): 0%
Condition 1 Conversion (%) ([7]; time 1 h): 0%
Condition 1 Conversion (%) ([7]; time 4 h): 0%
Condition 1 Conversion (%) ([7]; time 24 h): 0%

COc1ccc([C@]23CCN(C)[C@H]2CC2(CC3)OCC(COc3ccccc3OC)O2)cc1OC (stereo partly drawn) [Compound 216, (3′aS,7′aS)-3′a-(3,4-dimethoxyphenyl)-4-[(2-methoxyphenoxy)methyl]-1′-methyl-spiro[1,3-dioxolane-2,6′-2,3,4,5,7,7a-hexahydroindole]]
Condition 2 Conversion (%) ([6]; time 1 min): 0%
Condition 2 Conversion (%) ([6]; time 5 min): 0%
Condition 2 Conversion (%) ([6]; time 30 min): 0%
Condition 2 Conversion (%) ([6]; time 1 h): 0%
Condition 2 Conversion (%) ([6]; time 4 h): 0%
Condition 2 Conversion (%) ([6]; time 24 h): 0%
Condition 1 Conversion (%) ([7]; time 1 min): 0%
Condition 1 Conversion (%) ([7]; time 5 min): 0%
Condition 1 Conversion (%) ([7]; time 30 min): 0%
Condition 1 Conversion (%) ([7]; time 1 h): 0%
Condition 1 Conversion (%) ([7]; time 4 h): 0%
Condition 1 Conversion (%) ([7]; time 24 h): 0%
